In patent publication US10869863B2, “Multi-arm polymeric targeting anti-cancer conjugate” (priority 2016, dated 2020):

What was measured:
[1] = tested on: human pancreatic cancer MIA Paca-2 transplanted tumor; assay: Inhibitory effect in human pancreatic cancer MIA Paca-2 xenograft model in nude mice; assay type: in vivo; conditions: MIA Paca-2 in female BALB/c-nu/nu nude mice; 40 mg·kg^−1 IV Q4D×3; 3 weeks; n=5
Procedure: The cells were placed in a 37° C. incubator containing 5% CO2 to cultivate.
A subcutaneous tumor xenograft model in nude mice was established by cell inoculation method: tumor cells in logarithmic phase of growth were collected, counted and then resuspended in 1×PBS, and the concentration of the cell suspension was adjusted to 3×10^7/mL. 1 mL syringes (4 gauge needle) were used to inoculate the tumor cells to the right back of the nude mice subcutaneously, 3×10^6/0.1 mL/mice. […]
(§1) The experimental period lasted for 3 weeks, and the body weights and the tumor sizes of the animals were measured twice a week during the experiment. The clinical symptoms were observed and recorded daily. On the last day of the experiment, the animals were sacrificed, the body weights were weighed, and the tumors were excised, weighed and recorded by photographing.
(§2) The calculation formula of the tumor volume (TV) was: TV=a×b^2/2, wherein a and b represented the measured length and width of the tumor, respectively. The calculation formula of the relative tumor volume (RTV) was: RTV=Vt/V0, wherein V0 was the tumor volume measured at the time of grouping and first administration, and Vt was the tumor volume at the time of a measurement.

[2] = tested on: human breast cancer MDA-MB-231 transplanted tumor; assay: Inhibitory effect in human breast cancer MDA-MB-231 xenograft model in nude mice; assay type: in vivo; conditions: MDA-MB-231 in female BALB/c nude mice; 40 mg·kg^−1 IV Q4D×3; 3 weeks; n=5
Procedure: MDA-MB-231 cells were cultured in DMEM, which contained 10% fetal bovine serum FBS (GIBCO, USA). The cells were placed in a 37° C. incubator containing 5% CO2 to cultivate.
A subcutaneous tumor xenograft model in nude mice was established by cell inoculation method: tumor cells in logarithmic phase of growth were collected, counted and then resuspended in 1×PBS, and the concentration of the cell suspension was adjusted to 1×10^7/mL. 1 mL syringes (4 gauge needle) were used to inoculate the tumor cells to the right back of the nude mice subcutaneously, 1×10^6/0.1 mL/mice. […]
as §1, §2

[3] = tested on: human gastric cancer NCI-N87 transplanted tumor; assay: Inhibitory effect on in vivo tumor growth, human gastric cancer NCI-N87 cell strain transplanted tumor model in nude mice; conditions: 40 mg·kg^−1 (as active agent) IV Q4D × 3, n=5
Procedure: NCI-N87 cells in logarithmic phase of growth were collected. […] Cell suspension was aspirated with a 1 mL syringe, and injected subcutaneously to the anterior right armpit of the nude mice. Each animal was inoculated with 100 μL (5×10^6 cells/animal), and the NCI-N87 transplanted tumor model in nude mice was established. Animal status and the condition of tumor growth were observed regularly after inoculation, an electronic vernier caliper was used to measure the tumor diameters, the data was directly input to an Excel spreadsheet, and the tumor volumes were calculated. […] The tumor diameters were measured twice a week after the initiation of the experiment, the tumor volumes were calculated, and the body weights of the animals were weighed and recorded at the same time.
The calculation formula of the tumor volume (TV) was as follows: TV(mm^3)=l×w^2/2 wherein l represented the long diameter of a tumor (mm), and w represented the short diameter of a tumor (mm).
(§3) The first administration was initiated on the day of grouping, the experiment was ended after 21 days, and the volumes of administration were all 10 mL·kg^−1. […]
After the experiment was ended, the animals were euthanized (CO2) after the body weights were weighed and the tumor diameters were measured. The tumor tissues were excised and weighed, and the tumor weight inhibition rates were calculated. […]

[4] = tested on: orthotopic U87MG brain glioma; assay type: in vivo, human; conditions: orthotopic U87MG brain glioma in nude mice; 40 mg·kg^−1 (as active agent) IV Q4D × 3; n=5
Procedure: U87MG cells in logarithmic phase of growth were collected. […] The cells were charged into a 50 mL centrifuge tube after being pipetted with a pipettor to make them evenly dispersed, and the centrifuge tube was placed in an ice box. Cell suspension was aspirated with a 1 mL syringe, 1 μL of human brain glioma cell (U87MG cells) cultured in vitro was inoculated (1×10^5 cells/animal) using microinjection method via the guidance of a stereotactic apparatus for animals, the orthotopic U87MG brain glioma model was established, and animal status was observed periodically after inoculation.
The first administration was initiated on the day of grouping, the experiment was ended after 21 days, and the volumes of administration were all 10 mL·kg^−1. Group 1 was a solvent control group, and was given blank solvent by intravenous injection via tail once every 4 days for a total of 3 times (Q4D×3).
The first administration was initiated on the day of grouping, the experiment was ended after 21 days, and the volumes of administration were all 10 mL·kg^−1.
Groups with 10-hydroxycamptothecin as the active agent (Groups 14 to 18). The first administration was initiated on the day of grouping, the experiment was ended after 21 days, and the volumes of administration were all 10 mL·kg^−1.
Groups with rubitecan as the active agent (Groups 19 to 23). […]
The survival time of the animals were recorded.

[5] = tested on: human colon cancer HT-29 transplanted tumor; assay: Inhibitory effect on in vivo tumor growth, human colon cancer HT-29 transplanted tumor model in nude mice; conditions: HT-29 in female BALB/c nude mice; 40 mg·kg^−1 (as content of active agent) IV Q4D×3; experiment ended after 21 days; n=5
Procedure: HT-29 cells in logarithmic phase of growth were collected. […] Cell suspension was aspirated with a 1 mL syringe, and injected subcutaneously to the anterior right armpit of nude mice. Each animal was inoculated with 100 μL (6×10^6 cells/animal), and the HT-29 transplated tumor model in nude mice was established. Animal status and the condition of tumor growth were observed regularly after inoculation, an electronic vernier caliper was used to measure the tumor diameters, the data was directly input to an Excel spreadsheet, and the tumor volumes were calculated. […] The tumor diameters were measured twice a week after the initiation of the experiment, the tumor volumes were calculated, and the body weights of the animals were weighed and recorded at the same time.
The calculation formula of the tumor volume (TV) was as follows: TV(mm^3)=l×w^2/2
as §3
On the last day of the experiment, the animals were euthanized (CO2) after the body weights were weighed and the tumor diameters were measured. The tumor tissues were excised, weighed and photographed (respectively photographed according to the following combinations), and the tumor weight inhibition rates were calculated. […]

## CCc1c2c(nc3ccc(OC(=O)N4CCC(N5CCCCC5)CC4)cc13)-c1cc3c(c(=O)n1C2)COC(=O)[C@]3(O)CC [irinotecan]
[1]
  Relative tumor proliferation rate (% T/C): 59.4%
[2]
  Relative tumor proliferation rate (% T/C): 44.8%^
[3]
  Average relative tumor proliferation rate (% T/C): 63.2%
[4]
  Median survival time: 27 days
[5]
  Relative tumor proliferation rate (% T/C): 69%
